Measurements from patent publication US10106556B2, “Heterocyclic compound” (TAKEDA PHARMACEUTICAL COMPANY LIMITED, priority 2015, dated 2018).

Molecular target: T1, His-hMAGL (recombinant polyhistidine tagged human MAGL protein) (Homo sapiens, UniProt Q99685)
T1 construct: made in house; host or cells: E. coli BL21(DE3)
T1 sequence (Q99685 1-303): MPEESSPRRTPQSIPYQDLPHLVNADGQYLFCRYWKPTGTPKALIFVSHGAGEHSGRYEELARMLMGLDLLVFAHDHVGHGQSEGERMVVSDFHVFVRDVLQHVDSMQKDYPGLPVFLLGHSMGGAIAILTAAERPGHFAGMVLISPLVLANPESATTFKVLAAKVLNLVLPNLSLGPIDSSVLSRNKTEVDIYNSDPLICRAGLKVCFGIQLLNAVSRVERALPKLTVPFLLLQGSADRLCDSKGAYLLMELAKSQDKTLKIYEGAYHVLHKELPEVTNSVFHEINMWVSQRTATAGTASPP
Assay: Measurement of MAGL inhibitory activity (arachidonic acid production from 2-arachidonylglycerol, RapidFire-mass spectrometry)
Type: biochemical
Conditions: MAGL inhibitory rate at 10 μM test compound, 60 min preincubation with His-hMAGL, 2-arachidonylglycerol substrate, 10 min reaction at room temperature
Summary of the method: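 Inhibition (%) was derived from arachidonic acid levels relative to enzyme-free and compound-free groups. Product was measured by online C4 solid-phase extraction and triple-quadrupole MS in negative SRM mode, corrected by arachidonic acid-d8 (3 μM in the acetonitrile added). Substrate was 2-arachidonylglycerol; enzyme was His-tagged recombinant human MAGL.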

inhibition at 10 µM | % inhibition (10 μM) (10 µM) | SMILES
101% |  | O=C1COc2cc(F)c(C(=O)N3CC(COc4ccc(-c5ccncc5Cl)cc4F)C3)cc2N1 [Example 243, 6-((3-((4-(3-chloropyridin-4-yl)-2-fluorophenoxy)methyl)azetidin-1-yl)carbonyl)-7-fluoro-2H-1,4-benzoxazin-3(4H)-one]
102% |  | O=C1COc2cc(F)c(C(=O)N3CC(COc4ccc(Cl)cc4-c4cncc(F)c4)C3)cc2N1 [Example 200, 6-((3-((4-chloro-2-(5-fluoropyridin-3-yl)phenoxy)methyl)azetidin-1-yl)carbonyl)-7-fluoro-2H-1,4-benzoxazin-3(4H)-one]
99% |  | Cn1nccc1-c1cc(Cl)ccc1OCC1CN(C(=O)c2cc3c(cc2F)OCC(=O)N3)C1 [Example 218, 6-((3-((4-chloro-2-(1-methyl-1H-pyrazol-5-yl)phenoxy)methyl)azetidin-1-yl)carbonyl)-7-fluoro-2H-1,4-benzoxazin-3(4H)-one]
104% |  | O=C1COc2cc(F)c(C(=O)N3CCC(COc4ccc(F)cc4Cl)CC3)cc2N1 [Example 66, 6-((4-((2-chloro-4-fluorophenoxy)methyl)piperidin-1-yl)carbonyl)-7-fluoro-2H-1,4-benzoxazin-3(4H)-one]
102% |  | O=C1COc2cc(F)c(C(=O)N3CC(OCc4ccccc4Cl)C3)cc2N1 [Example 342, 6-((3-((2-chlorobenzyl)oxy)azetidin-1-yl)carbonyl)-7-fluoro-2H-1,4-benzoxazin-3(4H)-one]
94% |  | O=C1COc2ccc(C(=O)N3CCC(COc4ccc5[nH]ncc5c4)CC3)cc2N1 [Example 61, 6-((4-((1H-indazol-5-yloxy)methyl)piperidin-1-yl)carbonyl)-2H-1,4-benzoxazin-3(4H)-one]
101% |  | O=C1COc2ccc(C(=O)N3CCC(COc4ccccc4Cl)CC3)cc2N1 [Example 24, 6-((4-((2-chlorophenoxy)methyl)piperidin-1-yl)carbonyl)-2H-1,4-benzoxazin-3 (4H)-one]
95% |  | Cc1cccc(-c2ccc(OCC3CN(C(=O)c4cc5c(cc4F)OCC(=O)N5)C3)c(F)c2)n1 [Example 230, 7-fluoro-6-((3-((2-fluoro-4-(6-methylpyridin-2-yl)phenoxy)methyl)azetidin-1-yl)carbonyl)-2H-1,4-benzoxazin-3(4H)-one]
100% |  | Cc1cncc(-c2cc(Cl)ccc2OCC2CN(C(=O)c3cc4c(cc3F)OCC(=O)N4)C2)c1 [Example 202, 6-((3-((4-chloro-2-(5-methylpyridin-3-yl)phenoxy)methyl)azetidin-1-yl)carbonyl)-7-fluoro-2H-1,4-benzoxazin-3(4H)-one]
102% |  | O=C1COc2cc(F)c(C(=O)N3CC(COC4CCCCC4)C3)cc2N1 [Example 280, 6-((3-((cyclohexyloxy)methyl)azetidin-1-yl)carbonyl)-7-fluoro-2H-1,4-benzoxazin-3(4H)-one]
103% |  | O=C1COc2cc(F)c(C(=O)N3CC(COc4ccc(Br)cc4F)C3)cc2N1 [Example 194, 6-((3-((4-bromo-2-fluorophenoxy)methyl)azetidin-1-yl)carbonyl)-7-fluoro-2H-1,4-benzoxazin-3(4H)-one]
92% |  | N#Cc1ccc(OCC2CCN(C(=O)c3ccc4c(c3)NC(=O)CO4)CC2)cc1 [Example 49, 4-((1-((3-oxo-3,4-dihydro-2H-1,4-benzoxazin-6-yl)carbonyl)piperidin-4-yl)methoxy)benzonitrile]
101% |  | O=C1COc2cc(F)c(C(=O)N3CC(OCc4ccc5c(c4)CCCC5)C3)cc2N1 [Example 346, 7-fluoro-6-((3-(5,6,7,8-tetrahydronaphthalen-2-ylmethoxy)azetidin-1-yl)carbonyl)-2H-1,4-benzoxazin-3(4H)-one]
102% |  | Cc1ncccc1-c1cc(Cl)ccc1OCC1CN(C(=O)c2cc3c(cc2F)OCC(=O)N3)C1 [Example 191, 6-((3-((4-chloro-2-(2-methylpyridin-3-yl)phenoxy)methyl)azetidin-1-yl)carbonyl)-7-fluoro-2H-1,4-benzoxazin-3(4H)-one]
103% |  | O=C(c1ccc2ccc(=O)[nH]c2c1)N1CCC(COc2ccc(F)cc2Cl)CC1 [Example 79, 7-((4-((2-chloro-4-fluorophenoxy)methyl)piperidin-1-yl)carbonyl)quinolin-2(1H)-one]
102% |  | Cc1ccc(OCC2CN(C(=O)c3cc4c(cc3F)OCC(=O)N4)C2)cc1 [Example 161, 7-fluoro-6-((3-((4-methylphenoxy)methyl)azetidin-1-yl)carbonyl)-2H-1,4-benzoxazin-3(4H)-one]

inhibition at 10 µM | % inhibition (10 μM) (10 µM) | SMILES
100% |  | O=C1COc2cc(F)c(C(=O)N3CC(COc4ccc(C5=CCOCC5)cc4F)C3)cc2N1 [Example 244, 6-((3-((4-(3,6-dihydro-2H-pyran-4-yl)-2-fluorophenoxy)methyl)azetidin-1-yl)carbonyl)-7-fluoro-2H-1,4-benzoxazin-3(4H)-one]
104% |  | O=C1COc2cc(F)c(C(=O)N3CC(COc4ccc5ncccc5c4)C3)cc2N1 [Example 170, 7-fluoro-6-((3-((quinolin-6-yloxy)methyl)azetidin-1-yl)carbonyl)-2H-1,4-benzoxazin-3(4H)-one]
98% |  | O=C1COc2cc(F)c(C(=O)N3CC(COc4ccc(Cl)cc4-c4ccnc(Cl)c4)C3)cc2N1 [Example 208, 6-((3-((4-chloro-2-(2-chloropyridin-4-yl)phenoxy)methyl)azetidin-1-yl)carbonyl)-7-fluoro-2H-1,4-benzoxazin-3(4H)-one]
86% |  | O=C1COc2ccc(C(=O)N3CCC(COc4nc5ccccc5s4)CC3)cc2N1 [Example 62, 6-((4-((1,3-benzothiazol-2-yloxy)methyl)piperidin-1-yl)carbonyl)-2H-1,4-benzoxazin-3(4H)-one]
101% |  | Cc1cc(Cl)ccc1OCC1CCN(C(=O)c2ccc3c(c2)NC(=O)CO3)CC1 [Example 37, 6-((4-((4-chloro-2-methylphenoxy)methyl)piperidin-1-yl)carbonyl)-2H-1,4-benzoxazin-3(4H)-one]
100% |  | Cc1cc(-c2ccc(OCC3CN(C(=O)c4cc5c(cc4F)OCC(=O)N5)C3)c(F)c2)n(C)n1 [Example 259, 6-((3-((4-(1,3-dimethyl-1H-pyrazol-5-yl)-2-fluorophenoxy)methyl)azetidin-1-yl)carbonyl)-7-fluoro-2H-1,4-benzoxazin-3(4H)-one]
 | 100% | CC(Oc1cc(F)ccc1F)C1CN(C(=O)c2cc3c(cc2F)OCC(=O)N3)C1 (centres unmarked) [Example 320, 6-((3-(1-(2,5-difluorophenoxy)ethyl)azetidin-1-yl)carbonyl)-7-fluoro-2H-1,4-benzoxazin-3(4H)-one]
104% |  | Cc1cc(-c2cc(Cl)ccc2OCC2CN(C(=O)c3cc4c(cc3F)OCC(=O)N4)C2)nn1C [Example 217, 6-((3-((4-chloro-2-(1,5-dimethyl-1H-pyrazol-3-yl)phenoxy)methyl)azetidin-1-yl)carbonyl)-7-fluoro-2H-1,4-benzoxazin-3(4H)-one]
88% |  | Cc1nc2c(cc1C(=O)N1CCC(COc3ccc(F)cc3Cl)CC1)NC(=O)CO2 [Example 145, 7-((4-((2-chloro-4-fluorophenoxy)methyl)piperidin-1-yl)carbonyl)-6-methyl-1H-pyrido[2,3-b][1,4]oxazin-2(3H)-one]
100% |  | CC(Oc1cc(F)cc(F)c1)C1CN(C(=O)c2cc3c(cc2F)OCC(=O)N3)C1 (centres unmarked) [Example 305, 6-((3-(1-(3,5-difluorophenoxy)ethyl)azetidin-1-yl)carbonyl)-7-fluoro-2H-1,4-benzoxazin-3(4H)-one]
99% |  | CC(C)(O)c1cc(F)ccc1OCC1CCN(C(=O)c2cc3c(cc2F)OCC(=O)N3)CC1 [Example 91, 7-fluoro-6-((4-((4-fluoro-2-(2-hydroxypropan-2-yl)phenoxy)methyl)piperidin-1-yl)carbonyl)-2H-1,4-benzoxazin-3(4H)-one]
102% |  | COc1ccccc1-c1ccccc1OCC1CN(C(=O)c2cc3c(cc2F)OCC(=O)N3)C1 [Example 174, 7-fluoro-6-((3-(((2′-methoxybiphenyl-2-yl)oxy)methyl)azetidin-1-yl)carbonyl)-2H-1,4-benzoxazin-3(4H)-one]
102% |  | Cc1cc(-c2ccc(OCC3CN(C(=O)c4cc5c(cc4F)OCC(=O)N5)C3)c(F)c2)nn1C [Example 253, 6-((3-((4-(1,5-dimethyl-1H-pyrazol-3-yl)-2-fluorophenoxy)methyl)azetidin-1-yl)carbonyl)-7-fluoro-2H-1,4-benzoxazin-3(4H)-one]
102% |  | O=C1COc2cc(F)c(C(=O)N3CC(COCc4ccc(Cl)cc4)C3)cc2N1 [Example 147, 6-((3-(((4-chlorobenzyl)oxy)methyl)azetidin-1-yl)carbonyl)-7-fluoro-2H-1,4-benzoxazin-3(4H)-one]
103% |  | COc1cc(Cl)ccc1OCC1CN(C(=O)c2cc3c(cc2F)OCC(=O)N3)C1 [Example 115, 6-((3-((4-chloro-2-methoxyphenoxy)methyl)azetidin-1-yl)carbonyl)-7-fluoro-2H-1,4-benzoxazin-3(4H)-one]
100% |  | O=C1COc2ccc(C(=O)N3CCC(COc4ccc(Cl)cc4Cl)CC3)cc2N1 [Example 23, 6-((4-((2,4-dichlorophenoxy)methyl)piperidin-1-yl)carbonyl)-2H-1,4-benzoxazin-3(4H)-one]
